{"source": "patent US11297837B2", "about": "“Pesticidally activi mixtures comprising anthranilamide compounds” (priority 2016, dated 2022)", "type_in_all_cases": "in vivo", "key": {"[1]": {"system": "boll weevil (Anthonomus grandis)", "assay": "Boll weevil (Anthonomus grandis) control, insect diet with eggs in 24-well microtiter plates", "conditions": "egg and larval mortality visually assessed after 5 days", "protocol": "For evaluating control of boll weevil the test unit consisted of 24-well-microtiter plates containing an insect diet and 20-30 A. grandis eggs.\nThe compounds or mixtures were formulated using a solution containing 75% water and 25% DMSO. Different concentrations of formulated compounds or mixtures were sprayed onto the insect diet at 20 μl, using a custom built micro atomizer, at two replications.\n(§1) For experimental mixtures in these tests identical volumes of both mixing partners at the desired concentrations respectively, were mixed together.\nAfter application, microtiter plates were incubated at 23+1° C., 50+5% RH for 5 days. Egg and larval mortality was then visually assessed."}, "[2]": {"system": "yellow fever mosquito (Aedes aegypti)", "assay": "Yellow fever mosquito (Aedes aegypti) control, larvae in tap water in 96-well microtiter plates", "conditions": "larval mortality visually assessed after 2 days", "protocol": "For evaluating control of yellow fever mosquito (Aedes aegypti) the test unit consisted of 96-well-microtiter plates containing 200 μl of tap water per well and 5-15 freshly hatched A. aegypti larvae.\nThe compounds or mixtures were formulated using a solution containing 75% water and 25% DMSO. Different concentrations of formulated compounds or mixtures were sprayed onto the insect diet at 2.5 μl, using a custom built micro atomizer, at two replications.\nas §1\nAfter application, microtiter plates were incubated at 28±1° C., 80±5% RH for 2 days. Larval mortality was then visually assessed."}, "[3]": {"system": "green peach aphid (Myzus persicae)", "assay": "Green peach aphid (Myzus persicae) control through systemic means, artificial diet in 96-well microtiter plates", "conditions": "2 ppm; aphid mortality and fecundity visually assessed after 3 days", "source_text": "For evaluating control of green peach aphid (Myzus persicae) through systemic means the test unit consisted of 96-well-microtiter plates containing liquid artificial diet under an artificial membrane.\nDifferent concentrations of formulated compounds or mixtures were pipetted into the aphid diet, using a custom built pipetter, at two replications.\nas §1\nAfter application, 5-8 adult aphids were placed on the artificial membrane inside the microtiter plate wells. […] Aphid mortality and fecundity was then visually assessed."}}}
{"smiles": "CC(NC(=O)c1cc(Cl)cc(Br)c1NC(=O)c1cc(Br)nn1-c1ncccc1Cl)C1CC1", "note": "(centres unmarked) [I.2, cyclaniliprole, reference compound]", "values": [{"measurement": "Average Control %", "setting": "[1]; 0.08 ppm", "value": 0, "unit": "%"}, {"measurement": "Average Control %", "setting": "[2]; 2 ppm", "value": 0, "unit": "%"}]}
{"smiles": "Cn1nc(C(F)(F)C(F)(F)F)c(C(F)(F)F)c1C(=O)Nc1ccc(Cl)c(C(=O)NCc2ccccc2)c1", "note": "[II-1, N-[4-Chloro-3-[[(phenylmethyl)amino]carbonyl]phenyl]-1-methyl-3-(1,1,2,2,2-pentafluoroethyl)-4-(trifluoromethyl)-1H-pyrazole-5-carboxamide]", "values": [{"measurement": "Average Control %", "setting": "[1]; 20 ppm", "value": 0, "unit": "%"}, {"measurement": "Average Control %", "setting": "[2]; 20 ppm", "value": 50, "unit": "%"}]}
{"smiles": "CCN1OC[C@@H](NC(=O)c2ccc(C3=NOC(c4cc(Cl)cc(Cl)c4)(C(F)(F)F)C3)cc2C)C1=O", "note": "(stereo partly drawn) [II-4.1, 4-[5-(3,5-dichlorophenyl)-5-(trifluoromethyl)-4H-isoxazol-3-yl]-N-[(4R)-2-ethyl-3-oxo-isoxazolidin-4-yl]-2-methyl-benzamide]", "values": [{"measurement": "Average Control %", "setting": "[3]", "value": 0, "unit": "%"}]}
